The values below are quoted from earlier work in patent publication US20060009471A1, “Amido compounds and their use as pharmaceuticals” (priority 2004, published 2006).

This data set addresses T1, 11βHSD1 in the eye (Homo sapiens, UniProt P28845).
T1 construct: host or cells: eye (non-pigmented epithelial cells) of healthy volunteers, in vivo
The conditions noted are these: healthy volunteers, after seven days of carbenoxolone treatment.

T1 sequence (P28845 whole entry): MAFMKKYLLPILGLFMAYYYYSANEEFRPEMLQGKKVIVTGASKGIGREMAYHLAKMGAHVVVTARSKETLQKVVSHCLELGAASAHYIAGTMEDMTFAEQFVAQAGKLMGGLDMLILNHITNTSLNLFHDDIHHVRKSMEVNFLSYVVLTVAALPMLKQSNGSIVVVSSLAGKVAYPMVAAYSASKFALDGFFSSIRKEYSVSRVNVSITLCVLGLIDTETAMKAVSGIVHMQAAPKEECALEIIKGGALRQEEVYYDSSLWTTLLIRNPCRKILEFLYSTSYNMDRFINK

As for `CC1(C)[C@@H](OC(=O)CCC(=O)O)CC[C@]2(C)[C@H]3C(=O)C=C4[C@@H]5C[C@@](C)(C(=O)O)CC[C@]5(C)CC[C@@]4(C)[C@]3(C)CC[C@@H]12` [carbenoxolone], the IOP reduced is reported as 18%.
